The source of these data is article PMC6511943, “Structure-Guided Drug Design of 6-Substituted Adenosine Analogues as Potent Inhibitors of Mycobacterium tuberculosis Adenosine Kinase” (Journal of Medicinal Chemistry, 2019).

In brackets after ≈: the same amount, converted by molar mass. A value given as a limit tells only on which side of the number the result lay.

Data set [1] concerns the target T1, MtbAdoK (Mycobacterium tuberculosis, UniProt P9WID5). Particulars: read-out: Km for adenosine, previously reported values; cited from earlier work.
The test system of a further data set is Mtb H37Rv WT. Put plainly: microbe, parasite or virus in culture. It is filed as cell-based. Particulars: Mycobacterium tuberculosis.
Data set [2] has as its target T1, MtbAdoK. Put plainly: MtbAdoK enzymatic assay (pyruvate kinase–lactate dehydrogenase coupled), IC50 and Ki determination. It is filed as biochemical. The following applies: Cheng–Prusoff for competitive inhibition; 15.0 μM adenosine; ± SD of 2 experiments.
In the next data set the target is T2, hAdoK (Homo sapiens, UniProt P55263).
T2 construct: His-tag with Tobacco Etch Virus (TEV) cleavage site (N); made in house; host or cells: Escherichia coli BL21 (DE3)
Put plainly: hAdoK enzymatic assay (pyruvate kinase–lactate dehydrogenase coupled), Ki determination. The data set is classed as biochemical.

A further data set has as its system Mtb mc^2 7000. Put plainly: Antimycobacterial assay (MABA). It is filed as cell-based. The following applies: Mycobacterium tuberculosis, Mtb mc^2 7000, MABA, 6 days + 2 days resazurin. On the technique in general: Alamar Blue is a resazurin reagent that responds to reducing activity.
In data set [3] the test system is human dermal fibroblasts (HDF). Put plainly: in vitro. It is filed as cell-based. The following applies: HDF cells. Here is the method: HDFs were purchased from ATCC (Manassas, VA). HDF cells were cultured in DMEM (Lonza) media supplemented with 10.0% fetal bovine serum (Lonza) and penicillin/streptomycin (Lonza). For the cytotoxicity assay, compound stocks were serially diluted in phosphate-buffered saline plus 10.0% DMSO. On the day of assay, HDF cells were trypsinized, counted, and resuspended at a concentration of 64 000 cells/mL in media. Cells were plated, overlaid with the compound serial dilutions, and incubated at 37.0 °C. After 48.0 h, resazurin dye was added, and the assay plates cultured for another 24.0 h. On the next day, the absorbance of the resazurin was measured on a microplate reader to assess cell death. Cytotoxicity was determined as a percent control, and CC50 values for each compound were determined by utilizing eq 1.

A further data set in a line: in vivo. The arrangement: species or system Swiss Webster mice. Particulars: female, ND4 Swiss Webster, mouse, po. The protocol:
(§1) Eight-week old female ND4 Swiss Webster mice (∼28 g each) (Envigo, Indianapolis, IN) were used for PK and combination tolerability-snapshot PK studies. Compound 18 was formulated in 5% DMSO, 95% canola oil and administered as a single 100 μL oral gavage at 10 mg·kg^–1 for PK and as a 200 μL oral gavage at 50, 100, or 200 mg·kg^–1 QD × 3 days for tolerability-snapshot PK. Mice were anesthetized using isoflurane and 50 μL collected at 0, 0.25, 0.5, 1, 2, and 4 h survival bleed times for traditional PK or 0, 1, 4, and 24 h for tolerability-snapshot PK studies after the first administered dose. Around 200 μL was collected at 6, 8, and 24 h terminal bleed times for the traditional PK. Survival bleeds were drawn from the facial vein and terminal bleeds via cardiac puncture following CO2 asphyxiation.[35] Three mice were used per time point.
Blood samples were centrifuged (3000g, 15 min) for plasma separation. Aliquots of plasma (10 μL) were extracted with two 500 μL equivalents of methanol containing 0.1% formic acid to ensure maximum recovery of compound 18 from plasma. The supernatant was collected from precipitated protein pellet following centrifugation (3000g, 5 min) and evaporated to dryness using a temperature-controlled Eppendorf Vacufuge at 30 °C for 4 h. The dry samples were reconstituted with 100 μL of methanol (1:10 original analyte dilution factor) spiked with 250 ng·mL^–1 verapamil (Sigma-Aldrich) as an internal standard and subjected to LC/MS analysis on a Bruker Daltronics micrOTOF-Q II mass spectrometer coupled with an Agilent 1200 Infinity series HPLC with temperature controlled autosampler (24 °C) and photodiode array detector. Standard solutions of compound 18 ranging from 1000 to 7.8125 ng·mL^–1 spiked into mouse control plasma was also analyzed to generate a calibration curve corrected for matrix effects. A linear regression generated from calibration samples was used to quantify samples.[34] The LOD of the LC/MS method was approximately 2 ng·mL^–1. A 4.6 × 100 mm Kinetex 2.6 μm EVO C18 100 Å column at a flow rate of 0.5 mL·min^–1 was used in the analysis. The mobile phase consisted of water containing 0.1% formic acid as solvent A and acetonitrile with 0.1% formic acid as solvent B. The gradient conditions were maintained as follows: 90% A, 10% B to 100% B in 8 min; 100% held for 4 min as a washing step; 100% B back to 90% A in 2 min; 90% A, 10% B held for 3 min to reset and equilibrate the column. Each analytical run was automatically calibrated using a secondary line injection of 10 μL of sodium acetate external standard at 13 min. The injection volume of the analyte was 10 μL, and MS was operated in positive mode with electrospray ionization at source. Mass spectra were monitored in a range of 50–1000m/z. Data were processed using DataAnalysis 4.1 and QuantAnalysis (Bruker Daltronics).

Data set [4] is classed as in vivo. The following applies: female Swiss Webster mice, single oral dose 10 mg·kg^–1. Here is the method: as §1
Data set [5] addresses T1, MtbAdoK. Put plainly: Steady-state kinetics of MtbAdoK. Particulars: versus adenosine.

T1 sequence (P9WID5 whole entry, looked up): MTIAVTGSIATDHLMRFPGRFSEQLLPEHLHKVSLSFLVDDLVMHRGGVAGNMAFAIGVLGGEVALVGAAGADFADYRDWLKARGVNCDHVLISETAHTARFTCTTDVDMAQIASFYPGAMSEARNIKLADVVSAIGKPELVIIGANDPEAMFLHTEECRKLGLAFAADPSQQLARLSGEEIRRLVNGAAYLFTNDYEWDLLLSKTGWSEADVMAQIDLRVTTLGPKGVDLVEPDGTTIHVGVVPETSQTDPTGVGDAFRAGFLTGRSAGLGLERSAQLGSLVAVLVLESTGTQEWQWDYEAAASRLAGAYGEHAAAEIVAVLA
T2 sequence (P55263 1-345 isoform P55263-2): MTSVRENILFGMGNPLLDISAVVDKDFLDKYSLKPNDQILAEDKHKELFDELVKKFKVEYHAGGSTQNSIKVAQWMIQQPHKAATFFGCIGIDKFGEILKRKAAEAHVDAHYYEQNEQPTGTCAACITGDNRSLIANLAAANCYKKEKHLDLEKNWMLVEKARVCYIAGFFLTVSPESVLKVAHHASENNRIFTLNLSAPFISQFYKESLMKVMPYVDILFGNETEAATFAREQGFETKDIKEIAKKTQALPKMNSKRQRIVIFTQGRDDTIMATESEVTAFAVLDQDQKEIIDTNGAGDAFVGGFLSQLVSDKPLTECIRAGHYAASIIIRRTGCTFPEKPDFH

By Km is commonly meant the concentration of substrate that gives half-maximal velocity. For the compound `Nc1ncnc2c1ncn2[C@@H]1O[C@H](CO)[C@@H](O)[C@H]1O` [Compound 1, adenosine], at MtbAdoK [1], the Michaelis-Menten constant (Km) is 800 to 3400 nM.

Take `Nc1ncnc2c1c(I)cn2[C@@H]1O[C@H](CO)[C@@H](O)[C@H]1O` [Compound 2, Iodotubercidin]: the MIC against Mtb H37Rv WT amounted to 18 ± 10 µM (≈ 7.06 µg/mL).

Broadly, the Ki is a measure of affinity in units of concentration, obtained from inhibition or displacement. The EC50 is the midpoint of the concentration-response curve. In general, AUC(0-t) refers to exposure summed from dosing to a finite time, without extrapolation to infinity. One may read the Cmax as the peak of the concentration-time curve. As usually defined, the Tmax is the time from dosing to the highest level. The AUC is concentration integrated over time. Regarding `OC[C@H]1O[C@@H](n2cnc3c(N4CCN(c5ccc(-c6ccccc6)cc5)CC4)ncnc32)[C@H](O)[C@@H]1O` [Compound 18, (2R,3R,4S,5R)-2-(6-(4-([1,1′-Biphenyl]-4-yl)piperazin-1-yl)-9H-purin-9-yl)-5-(hydroxymethyl)tetrahydrofuran-3,4-diol], the inhibition constant Ki on MtbAdoK [2] is 5.3 ± 0.07 nM; at hAdoK (Cheng–Prusoff, ± SD of 2 experiments) it was greater than 50 µM. Besides, the “activity against hAdoK (in words)” value on hAdoK was “no activity against hAdoK”. In addition, the EC50 with Mtb mc^2 7000 (192 h) was roughly 4 µM; in the data set on Mtb mc^2 7000, 4 ± 0.2 µM. For the same compound, the “cytotoxicity (in words)” value in [3] is on record as “no cytotoxicity”. Also, in the data set “in vivo” (10 mg/kg), the AUC(0-t) was 1800 ng·h/mL. Also, in the data set “in vivo” (10 mg/kg), the Cmax was 130 ± 20 ng/mL. The Tmax in “in vivo” (10 mg/kg), in the data set “in vivo” (50 mg/kg), in the data set “in vivo” (100 mg/kg) and in “in vivo” (200 mg/kg) was roughly 4 h in each case. Also, the AUC in “in vivo” (50 mg/kg) amounted to 9800 ng·h/mL; in the data set “in vivo” (100 mg/kg), 15300 ng·h/mL; in the data set “in vivo” (200 mg/kg), 23200 ng·h/mL. For the same compound, the tolerability entry in data set [4] was “well tolerated”. Also, the mode of inhibition result on MtbAdoK [5] is given as “competitive”.
